One series addresses T1, Human PDE10A enzyme (Homo sapiens, UniProt Q9Y233).
T1 construct: Human PDE10A enzyme was generated from Sf9 or COS-7 cells transfected with the full-length gene; His-tag; made in house; host or cells: Sf9 or COS-7 cells
The experiment in a line: PDE enzyme inhibition, SPA (Scintillation Proximity Assay). Particulars: for inhibition at 1 µM: compound at 1 μM, read-out: Percent inhibition (1 μM); for IC50: human PDE10A, [3H]cGMP substrate. Type of series: biochemical.

Read-outs that look alike come from different tables or passages of the source.

T1 sequence (Q9Y233 267-1055): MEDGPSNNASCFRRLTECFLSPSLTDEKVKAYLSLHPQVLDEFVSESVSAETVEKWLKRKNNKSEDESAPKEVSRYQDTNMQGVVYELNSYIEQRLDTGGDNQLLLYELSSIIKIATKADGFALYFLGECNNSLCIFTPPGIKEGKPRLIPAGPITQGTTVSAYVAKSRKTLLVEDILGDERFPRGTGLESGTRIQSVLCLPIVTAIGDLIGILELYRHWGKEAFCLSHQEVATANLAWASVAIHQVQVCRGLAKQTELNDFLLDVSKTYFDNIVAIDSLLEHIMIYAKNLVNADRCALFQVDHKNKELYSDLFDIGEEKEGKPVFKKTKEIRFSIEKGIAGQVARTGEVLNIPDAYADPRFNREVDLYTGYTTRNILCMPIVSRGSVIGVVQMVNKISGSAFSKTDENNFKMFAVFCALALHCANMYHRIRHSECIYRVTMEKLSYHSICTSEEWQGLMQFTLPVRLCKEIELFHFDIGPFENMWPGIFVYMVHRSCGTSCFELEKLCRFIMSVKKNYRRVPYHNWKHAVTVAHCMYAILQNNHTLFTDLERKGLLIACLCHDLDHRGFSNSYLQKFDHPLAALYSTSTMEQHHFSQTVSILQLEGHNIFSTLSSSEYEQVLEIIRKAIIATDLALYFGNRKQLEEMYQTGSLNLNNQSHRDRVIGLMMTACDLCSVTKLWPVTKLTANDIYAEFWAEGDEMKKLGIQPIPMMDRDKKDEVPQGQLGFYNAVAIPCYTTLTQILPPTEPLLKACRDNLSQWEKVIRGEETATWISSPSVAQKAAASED

Take `O=c1ccn(-c2ccc(N3CCOCC3)cc2)nc1-c1ccnn1-c1ccccc1` [Example 23, 1-(4-Morpholin-4-ylphenyl)-3-(1-phenyl-1H-pyrazol-5-yl)pyridazin-4(1H)-one]: the melting point fell in the range of 205 to 206 °C. For the same molecule, on Human PDE10A enzyme (Table 1), the inhibition at 1 µM came out at 102% and the IC50 was under 10 nM.
For the molecule `O=c1ccn(-c2ccc(F)cc2)nc1-c1ccnn1-c1ccccc1` [Example 17, 1-(4-Fluorophenyl)-3-(1-phenyl-1H-pyrazol-5-yl)pyridazin-4(1H)-one], the melting point was in the range of 252 to 253 °C. Further, at Human PDE10A enzyme (Table 1), the inhibition at 1 µM is 97% and the IC50 lay in the range of 10 to 200 nM.
The molecule `CS(=O)(=O)c1cccc(-n2ccc(=O)c(-c3ccnn3-c3ccccc3)n2)c1` [Example 36, 1-[3-(Methylsulfonyl)phenyl]-3-(1-phenyl-1H-pyrazol-5-yl)pyridazin-4(1H)-one] displayed a melting point of 199 to 200 °C. In addition, on Human PDE10A enzyme (Table 1, compound at 0.1 μM as noted in cell, read-out: Percent inhibition (at 0.1 μM)), the inhibition at 0.1 µM was determined as 90%. On Human PDE10A enzyme (Table 1), the IC50 is under 10 nM.
In turn, `O=c1c(OC(F)F)cn(-c2ccccc2F)nc1-c1ccnn1-c1ccccc1` [Example 64, 5-(Difluoromethoxy)-1-(2-fluorophenyl)-3-(1-phenyl-1H-pyrazol-5-yl)pyridazin-4(1H)-one] displayed a melting point of 109 to 114 °C. Further, at Human PDE10A enzyme (Table 1), the inhibition at 1 µM stood at 94% and the IC50 is 10 to 200 nM.
In turn, `O=c1ccn(-c2ccccc2OC(F)F)nc1-c1ccnn1-c1ccccc1` [Example 26, 1-[2-(Difluoromethoxy)phenyl]-3-(1-phenyl-1H-pyrazol-5-yl)pyridazin-4(1H)-one] displayed a melting point of 123 to 124 °C. In addition, on Human PDE10A enzyme (Table 1), the inhibition at 1 µM is 97% and the IC50 lay in the range of 10 to 200 nM.
On to `COc1cn(-c2cccc(C(F)(F)F)c2)nc(-c2ccnn2-c2ccccc2)c1=O` [Example 54, 5-Methoxy-3-(1-phenyl-1H-pyrazol-5-yl)-1-[3-(trifluoromethyl)phenyl]pyridazin-4(1H)-one], for which the melting point lay within 139 to 141 °C. Besides, on Human PDE10A enzyme (Table 1), the inhibition at 1 µM is 100% and the IC50 was under 10 nM.
On the same counts, the results for `O=c1ccn(-c2cccc(S(=O)(=O)c3nc4ccccc4[nH]3)c2)nc1-c1ccnn1-c1ccccc1` [Example 39, 1-[3-(1H-Benzimidazol-2-ylsulfonyl)phenyl]-3-(1-phenyl-1H-pyrazol-5-yl)pyridazin-4(1H)-one] are 160 to 161 °C, 98% and under 10 nM.
Molecule `COc1cn(-c2ccccc2F)nc(-c2ccnn2-c2ccccc2)c1=O` [Example 52, 1-(2-Fluorophenyl)-5-methoxy-3-(1-phenyl-1H-pyrazol-5-yl)pyridazin-4(1H)-one] showed a melting point of 163 to 165 °C. For the same molecule, on Human PDE10A enzyme (Table 1), the inhibition at 1 µM was 99% and the IC50 is under 10 nM.
For the molecule `COc1ccccc1-n1ccc(=O)c(-c2ccnn2-c2ccccc2)n1` [Example 13, 1-(2-Methoxyphenyl)-3-(1-phenyl-1H-pyrazol-5-yl)pyridazin-4(1H)-one], the melting point lay within 153 to 154 °C. In addition, at Human PDE10A enzyme (Table 1), the inhibition at 1 µM was 96% and the IC50 was in the range of 10 to 200 nM.
The molecule `COc1cn(-c2ccc(N3CCC3=O)cc2F)nc(-c2ccnn2-c2ccccc2)c1=O` [Example 107, 1-[2-Fluoro-4-(2-oxoazetidin-1-yl)phenyl]-5-methoxy-3-(1-phenyl-1H-pyrazol-5-yl)pyridazin-4(1H)-one] showed a melting point of 189 to 194 °C. At Human PDE10A enzyme (Table 2, compound at 0.1 μM, read-out: Percent inhibition (0.1 μM)), the inhibition at 0.1 µM worked out at 104%. On Human PDE10A enzyme (Table 2), this molecule yielded an IC50 of under 10 nM.
`O=c1ccn(-c2ccccc2Cl)nc1-c1ccnn1-c1ccccc1` [Example 32, 1-(2-Chlorophenyl)-3-(1-phenyl-1H-pyrazol-5-yl)pyridazin-4(1H)-one] came in with a melting point of 138 to 139 °C. Further, at Human PDE10A enzyme (Table 1), the inhibition at 1 µM was determined as 89% and the IC50 is 10 to 200 nM.

By melting point is commonly meant the temperature of the solid-liquid transition. What is called inhibition is the change of the read-out against control, counted positive when it falls. What is called IC50 is the midpoint of a concentration-inhibition curve. The low end stands for greater potency, the high end for weaker potency.

These data come from patent US8513251B2, “Pyridazinone compounds” (Takeda Pharmaceutical Company Limited, priority 2009, dated 2013).
